Assay results taken from PubChem BioAssay (NCI).
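These data come from cells grown in 96-well plates and exposed to compound for 48 hours at five concentrations. GI50 marks 50% less growth. TGI: total growth inhibition.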

Key:
Assay in all cases: DTP human tumour cell line panel, 48 h
[1] = tested on: NCI-H460 lung
[2] = tested on: SN12C renal
[3] = tested on: SK-OV-3 ovarian
[4] = tested on: T-47D breast
[5] = tested on: MOLT-4 leukemia
[6] = tested on: SK-MEL-28 melanoma
[7] = tested on: COLO 205 colon
[8] = tested on: SK-MEL-2 melanoma
[9] = tested on: K-562 leukemia
[10] = tested on: SF-539 CNS
[11] = tested on: OVCAR-3 ovarian
[12] = tested on: OVCAR-5 ovarian
[13] = tested on: CAKI-1 renal
[14] = tested on: HCC-2998 colon
[15] = tested on: UACC-62 melanoma
[16] = tested on: TK-10 renal
[17] = tested on: HOP-92 NSCLC
[18] = tested on: SW-620 colon
[19] = tested on: PC-3 prostate
[20] = tested on: OVCAR-4 ovarian
[21] = tested on: MCF7 breast
[22] = tested on: NCI-H226 lung
[23] = tested on: A498 renal
[24] = tested on: IGROV1 ovarian
[25] = tested on: OVCAR-8 ovarian
[26] = tested on: SF-295 CNS
[27] = tested on: LOX IMVI melanoma
[28] = tested on: 786-0 renal
[29] = tested on: HL-60(TB) leukemia
[30] = tested on: U251 CNS
[31] = tested on: BT-549 breast
[32] = tested on: HT29 colon
[33] = tested on: HOP-62 NSCLC
[34] = tested on: SNB-19 CNS
[35] = tested on: ACHN renal
[36] = tested on: MDA-MB-435
[37] = tested on: HCT-116 colon
[38] = tested on: NCI-H522 lung
[39] = tested on: SNB-75 CNS
[40] = tested on: DU-145 prostate
[41] = tested on: A549 NSCLC
[42] = tested on: RPMI-8226 leukemia
[43] = tested on: HS 578T breast
[44] = tested on: UO-31 renal
[45] = tested on: HCT-15 colon
[46] = tested on: SF-268 CNS
[47] = tested on: SR leukemia
[48] = tested on: KM12 colon
[49] = tested on: CCRF-CEM leukemia
[50] = tested on: M14 melanoma
[51] = tested on: MDA-MB-231 breast
[52] = tested on: SK-MEL-5 melanoma
[53] = tested on: NCI-H23 lung
[54] = tested on: RXF 393 renal
[55] = tested on: EKVX NSCLC
[56] = tested on: MALME-3M melanoma
[57] = tested on: NCI/ADR-RES ovarian
[58] = tested on: UACC-257 melanoma

COc1cc(OC)c(/C=C/C(=O)c2c(N)cc(OC)cc2OC)c(OC)c1
GI50 [1]: 0.347 µM
TGI [1]: > 51.2 µM
GI50 [2]: 0.719 µM
TGI [2]: > 100 µM
GI50 [3]: 0.767 µM
TGI [3]: > 100 µM
GI50 [4]: 0.478 µM
TGI [4]: > 100 µM
GI50 [5]: 1.02 µM
TGI [5]: > 100 µM
GI50 [6]: 2.18 µM
TGI [6]: > 100 µM
GI50 [7]: 2.94 µM
TGI [7]: > 45.1 µM
GI50 [8]: 0.528 µM
TGI [8]: > 100 µM
GI50 [9]: 0.305 µM
TGI [9]: > 100 µM
GI50 [10]: 0.365 µM
TGI [10]: > 25.2 µM
GI50 [11]: 0.28 µM
TGI [11]: 1.1 µM
GI50 [12]: 2.51 µM
TGI [12]: > 100 µM
GI50 [13]: 0.38 µM
TGI [13]: > 100 µM
GI50 [14]: 1.25 µM
TGI [14]: > 54.1 µM
GI50 [15]: 0.379 µM
TGI [15]: > 100 µM
GI50 [16]: 6.64 µM
TGI [16]: > 100 µM
GI50 [17]: 17.6 µM
TGI [17]: > 94.8 µM
GI50 [18]: 0.326 µM
TGI [18]: > 100 µM
GI50 [19]: 1.77 µM
TGI [19]: > 100 µM
GI50 [20]: 13.6 µM
TGI [20]: > 100 µM
GI50 [21]: 0.395 µM
TGI [21]: > 100 µM
GI50 [22]: 11.2 µM
TGI [22]: > 100 µM
GI50 [23]: 0.463 µM
GI50 [24]: 0.797 µM
TGI [24]: > 100 µM
GI50 [25]: 0.712 µM
TGI [25]: > 100 µM
GI50 [26]: 0.397 µM
GI50 [27]: 0.537 µM
TGI [27]: > 100 µM
GI50 [28]: 1.49 µM
TGI [28]: > 75 µM
GI50 [29]: 0.3 µM
TGI [29]: > 100 µM
GI50 [30]: 0.504 µM
TGI [30]: > 100 µM
GI50 [31]: 31.7 µM
TGI [31]: > 100 µM
GI50 [32]: 3.3 µM
TGI [32]: 14.6 µM
GI50 [33]: 0.724 µM
TGI [33]: > 100 µM
GI50 [34]: 0.654 µM
TGI [34]: > 100 µM
GI50 [35]: 0.722 µM
TGI [35]: > 100 µM
GI50 [36]: 0.0776 µM
TGI [36]: 0.514 µM
GI50 [37]: 0.384 µM
TGI [37]: > 100 µM
GI50 [38]: 0.234 µM
TGI [38]: 0.901 µM
GI50 [39]: 0.338 µM
GI50 [40]: 0.608 µM
TGI [40]: > 100 µM
GI50 [41]: 0.733 µM
TGI [41]: > 100 µM
GI50 [42]: 0.815 µM
TGI [42]: > 100 µM
GI50 [43]: 2.42 µM
TGI [43]: > 82 µM
GI50 [44]: 1.36 µM
TGI [44]: > 100 µM
GI50 [45]: 0.369 µM
TGI [45]: > 100 µM
GI50 [46]: 0.609 µM
TGI [46]: > 100 µM
GI50 [47]: 0.242 µM
TGI [47]: > 100 µM
GI50 [48]: 0.303 µM
TGI [48]: 47.9 µM
GI50 [49]: 1.26 µM
TGI [49]: > 100 µM
GI50 [50]: 0.349 µM
TGI [50]: > 100 µM
GI50 [51]: 1.35 µM
TGI [51]: > 100 µM
GI50 [52]: 0.332 µM
TGI [52]: > 100 µM
GI50 [53]: 0.826 µM
TGI [53]: > 100 µM
GI50 [54]: 0.623 µM
TGI [54]: 4.7 µM
GI50 [55]: 2.25 µM
TGI [55]: > 100 µM

Cc1ccc(O)cc1Nc1ccnc2cc(-c3ccccn3)ccc12
GI50 [1]: 3.65 µM
TGI [1]: 7.4 µM
GI50 [2]: 2.46 µM
TGI [2]: 7.51 µM
GI50 [3]: 1.98 µM
TGI [3]: 6.3 µM
GI50 [4]: 1.72 µM
TGI [4]: 9.86 µM
GI50 [5]: 4.18 µM
TGI [5]: 10.7 µM
GI50 [6]: 3.38 µM
TGI [6]: 6.79 µM
GI50 [7]: 3.92 µM
TGI [7]: 7.34 µM
GI50 [8]: 3.86 µM
TGI [8]: 8.03 µM
GI50 [56]: 3.59 µM
TGI [56]: 8.32 µM
GI50 [9]: 0.0973 µM
TGI [9]: 2.52 µM
GI50 [10]: 3.08 µM
TGI [10]: 6.68 µM
GI50 [11]: 2.14 µM
TGI [11]: 6.36 µM
GI50 [12]: 2.98 µM
TGI [12]: 9.21 µM
GI50 [13]: 1.05 µM
TGI [13]: 4.36 µM
GI50 [14]: 3.89 µM
TGI [14]: 7.51 µM
GI50 [15]: 3.45 µM
TGI [15]: 7.34 µM
GI50 [16]: 1.36 µM
TGI [16]: 4.23 µM
GI50 [17]: 0.292 µM
TGI [17]: 3.02 µM
GI50 [18]: 4.02 µM
TGI [18]: 7.65 µM
GI50 [19]: 3.08 µM
TGI [19]: 10.4 µM
GI50 [20]: 1.82 µM
TGI [20]: 11.7 µM
GI50 [21]: 2.71 µM
TGI [21]: 6.07 µM
GI50 [22]: 3.88 µM
TGI [22]: 11.9 µM
GI50 [23]: 1.83 µM
TGI [23]: 5.04 µM
GI50 [24]: 0.502 µM
TGI [24]: 2.13 µM
GI50 [25]: 3.61 µM
TGI [25]: 9.28 µM
GI50 [26]: 3.12 µM
TGI [26]: 6.89 µM
GI50 [27]: 2.26 µM
TGI [27]: 5.71 µM
GI50 [28]: 2.98 µM
TGI [28]: 6.66 µM
GI50 [29]: 4.69 µM
TGI [29]: 9.53 µM
GI50 [30]: 3.29 µM
TGI [30]: 6.65 µM
GI50 [31]: 4.9 µM
TGI [31]: 10.3 µM
GI50 [32]: 3.9 µM
TGI [32]: 7.81 µM
GI50 [33]: 3.48 µM
TGI [33]: 8.59 µM
GI50 [34]: 4.54 µM
TGI [34]: 18.3 µM
GI50 [35]: 0.611 µM
TGI [35]: 5.16 µM
GI50 [57]: 4.49 µM
TGI [57]: 15.3 µM
GI50 [36]: 1.98 µM
TGI [36]: 5.65 µM
GI50 [37]: 3.49 µM
TGI [37]: 6.96 µM
GI50 [38]: 0.931 µM
TGI [38]: 4.6 µM
GI50 [39]: 0.405 µM
TGI [39]: 3.43 µM
GI50 [40]: 1.38 µM
TGI [40]: 8.28 µM
GI50 [41]: 3.8 µM
TGI [41]: 8.39 µM
GI50 [42]: 4.25 µM
TGI [42]: 9.88 µM
GI50 [43]: 2.45 µM
TGI [43]: 9.03 µM
GI50 [44]: 0.246 µM
TGI [44]: 3.77 µM
GI50 [45]: 2.44 µM
TGI [45]: 6.79 µM
GI50 [58]: 3.09 µM
TGI [58]: 6.25 µM
GI50 [46]: 1.71 µM
TGI [46]: 5.88 µM
GI50 [48]: 3.01 µM
TGI [48]: 6.57 µM
GI50 [49]: 4.86 µM
TGI [49]: 15 µM
GI50 [50]: 3.24 µM
TGI [50]: 7.51 µM
GI50 [51]: 1.25 µM
TGI [51]: 5.6 µM
GI50 [52]: 3.6 µM
TGI [52]: 7.14 µM
GI50 [53]: 3.59 µM
TGI [53]: 10.9 µM
GI50 [54]: 1.95 µM
TGI [54]: 5.37 µM
GI50 [55]: 3.61 µM
TGI [55]: 17.3 µM
